According to PMC11233931, “Remodeling tumor‐associated macrophage for anti‐cancer effects by rational design of irreversible inhibition of mitogen‐activated protein kinase‐activated protein kinase 2” (MedComm, 2024):

How the values were obtained:
Assay in all cases: Eurofins kinase selectivity profile against 380 other human recombinant kinases (Table S2)
Assay type in all cases: biochemical
[1] = biological target: T1, 380 human recombinant protein kinases (Homo sapiens, UniProt Q13976); details: PKG1α(h), read-out: Inhibition rate
T1 construct: purchased Eurofins (Celle Lévescault)
T1 sequence (Q13976 1-671): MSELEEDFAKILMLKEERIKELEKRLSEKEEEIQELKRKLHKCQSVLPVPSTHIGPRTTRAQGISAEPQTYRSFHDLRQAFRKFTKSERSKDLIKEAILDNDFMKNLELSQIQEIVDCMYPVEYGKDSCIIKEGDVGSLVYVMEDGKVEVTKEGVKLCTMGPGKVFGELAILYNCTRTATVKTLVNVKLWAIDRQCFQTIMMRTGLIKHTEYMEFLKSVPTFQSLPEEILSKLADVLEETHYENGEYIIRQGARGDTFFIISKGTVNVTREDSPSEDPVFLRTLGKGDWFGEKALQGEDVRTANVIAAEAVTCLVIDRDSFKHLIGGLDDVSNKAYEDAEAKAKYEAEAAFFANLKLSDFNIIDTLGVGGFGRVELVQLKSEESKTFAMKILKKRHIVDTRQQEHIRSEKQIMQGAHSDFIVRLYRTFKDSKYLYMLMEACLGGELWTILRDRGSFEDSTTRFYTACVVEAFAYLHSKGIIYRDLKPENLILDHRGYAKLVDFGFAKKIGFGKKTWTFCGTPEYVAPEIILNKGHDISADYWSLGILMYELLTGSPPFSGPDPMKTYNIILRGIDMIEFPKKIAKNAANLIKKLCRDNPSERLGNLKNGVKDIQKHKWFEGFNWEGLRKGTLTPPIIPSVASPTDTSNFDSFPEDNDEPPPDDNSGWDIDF
How it was run: (§1)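 The inhibitor was sent to a contract lab and screened at various concentrations against 380 human recombinant protein kinases. This served as a counter-screen for MK2 specificity.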

[2] = biological target: T2, 380 human recombinant protein kinases (Homo sapiens, UniProt Q8WTQ7); details: GRK7(h), read-out: Inhibition rate
T2 construct: purchased Eurofins (Celle Lévescault)
T2 sequence (Q8WTQ7 1-553): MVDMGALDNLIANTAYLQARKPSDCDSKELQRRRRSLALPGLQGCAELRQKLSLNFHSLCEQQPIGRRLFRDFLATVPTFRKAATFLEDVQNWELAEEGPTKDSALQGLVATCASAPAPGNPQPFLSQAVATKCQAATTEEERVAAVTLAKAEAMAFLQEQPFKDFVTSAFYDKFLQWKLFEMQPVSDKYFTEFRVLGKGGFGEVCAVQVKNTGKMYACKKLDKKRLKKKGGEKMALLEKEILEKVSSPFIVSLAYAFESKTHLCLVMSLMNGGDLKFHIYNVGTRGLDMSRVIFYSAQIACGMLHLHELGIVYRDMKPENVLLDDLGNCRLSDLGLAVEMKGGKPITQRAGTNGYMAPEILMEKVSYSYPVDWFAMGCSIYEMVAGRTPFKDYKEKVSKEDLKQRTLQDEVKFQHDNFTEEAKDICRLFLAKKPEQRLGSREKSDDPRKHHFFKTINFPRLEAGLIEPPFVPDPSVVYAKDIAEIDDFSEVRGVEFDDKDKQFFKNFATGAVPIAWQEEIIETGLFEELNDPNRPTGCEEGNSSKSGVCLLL
How it was run: as §1

[3] = biological target: T3, 380 human recombinant protein kinases (Homo sapiens, UniProt P29320); details: EphA3(h), read-out: Inhibition rate
T3 construct: purchased Eurofins (Celle Lévescault)
T3 sequence (P29320 21-983): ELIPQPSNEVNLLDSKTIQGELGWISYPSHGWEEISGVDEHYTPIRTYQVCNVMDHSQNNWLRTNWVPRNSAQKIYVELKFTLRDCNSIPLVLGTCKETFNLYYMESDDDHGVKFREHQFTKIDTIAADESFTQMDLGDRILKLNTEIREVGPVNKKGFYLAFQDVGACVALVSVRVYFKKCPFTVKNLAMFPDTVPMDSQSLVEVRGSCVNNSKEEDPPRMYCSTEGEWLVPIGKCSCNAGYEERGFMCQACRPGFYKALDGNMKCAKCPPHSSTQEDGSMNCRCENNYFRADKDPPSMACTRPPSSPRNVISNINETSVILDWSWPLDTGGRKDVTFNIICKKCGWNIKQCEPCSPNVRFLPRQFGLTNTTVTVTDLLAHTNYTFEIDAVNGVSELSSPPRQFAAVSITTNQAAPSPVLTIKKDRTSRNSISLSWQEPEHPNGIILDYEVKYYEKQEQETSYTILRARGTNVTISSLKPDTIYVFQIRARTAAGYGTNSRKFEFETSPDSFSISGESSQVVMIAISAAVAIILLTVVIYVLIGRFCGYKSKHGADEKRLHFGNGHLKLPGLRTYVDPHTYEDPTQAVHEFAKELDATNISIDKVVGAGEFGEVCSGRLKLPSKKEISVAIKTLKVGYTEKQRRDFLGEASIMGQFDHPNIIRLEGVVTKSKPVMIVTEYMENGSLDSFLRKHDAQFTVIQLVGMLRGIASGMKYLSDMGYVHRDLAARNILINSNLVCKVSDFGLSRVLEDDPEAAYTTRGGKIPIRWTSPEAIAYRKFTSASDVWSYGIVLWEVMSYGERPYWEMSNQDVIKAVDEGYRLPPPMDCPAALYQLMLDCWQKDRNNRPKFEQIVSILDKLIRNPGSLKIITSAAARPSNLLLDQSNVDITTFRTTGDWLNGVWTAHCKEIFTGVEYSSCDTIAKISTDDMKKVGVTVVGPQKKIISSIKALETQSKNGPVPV
How it was run: as §1

C=CC(=O)Nc1cc(-c2cc(-c3cc4c([nH]3)CCNC4=O)ccn2)ccc1OC(F)(F)F [compound 11]
inhibition at 0.01 µM ([1]; 10 nM): 1% | inhibition at 0.1 µM ([1]; 100 nM): -4% | inhibition at 1 µM ([1]; 1000 nM): 8% | inhibition at 0.01 µM ([2]; 10 nM): -4% | inhibition at 0.1 µM ([2]; 100 nM): -6% | inhibition at 1 µM ([2]; 1000 nM): 2% | inhibition at 0.01 µM ([3]; 10 nM): 15% | inhibition at 0.1 µM ([3]; 100 nM): -1% | inhibition at 1 µM ([3]; 1000 nM): -10%
